Columns and labels:
MB model of glaucoma = assay: IOP time course after single eye drop in MB model of glaucoma; format: in vivo, mouse; details: single dose eye drop
Experimental: Specifically, microbeads (MBs) were injected into the anterior chamber of a mouse eye as described in Example 2 with PBS-injected eyes used as controls. Compound 1 (10 mg/kg body weight) (or PBS vehicle) was injected intraperitoneally (IP). […] IOP was measured in mice between 10:00 AM and 1:00 PM with the TonoLab rebound tonometer (Colonial Medical Supply, Franconia, NH/Tyolat, Helsinki, Finland). Mice were sedated with IP injection of Avertin with final amount calculated by weight (e.g., 0.5 ml for 21-24 g animals). Animals were placed on a jack stand platform and the tonolab was clamped on a ring stand and centered onto the mid-cornea. During measurements animal were neither restrained nor touched. Each eye was measured twenty consecutive times, the highest and lowest values were discarded and the values were averaged.
FIG. 9 illustrates the short-term effects of a single dose of Compound 1 (eye drop) in the MB model of glaucoma. IOP was measured as described in Example 3 at the indicated time points after receiving a drop of Compound 1. Compound 1 reduced IOP beginning at 1 hour after dosing and continued through 6 hours after dosing.
FIG. 10 illustrates a time course of Compounds 1, 2, 5 and Compound 2-HCl as well as a positive control compound, timolol, with regard to inhibition of IOP. The experiment was conducted as described in Example 9. Each of the TRPV4 antagonists reduced IOP with a similar time course. Specifically, Compounds 1, 2, 5 and Compound 2-HCl reduced IOP for at least 6 hours after dosing.
FIG. 11 illustrates a time course of Compound 2-HCl activity. The experiment was conducted as described in Example 9. […] 2
FIG. 12 illustrates a comparison of the time course of Compound 2-HCl and Compound 5. The experiment was conducted as described in Example 9.

retinal ganglion cells [1] = assay: In vivo intraocular injection of GSK, NeuN+ RGC count; details: intraocular GSK, 48 hours
Experimental: In this experiment, GSK (100-300 nM) was injected intraocularly with a Hamilton syringe. Retinas were isolated after 48 hours, fixed and labeled with the RGC marker antibody NeuN. NeuN-immunopositive somata in the ganglion cell layer, shown in the panel on the right, were counted. The bar graph represents quantification of NeuN^+ cells in the indicated experimental groups.

retinal ganglion cells [2] = assay: Hypotonic swelling-induced calcium influx into retinal ganglion cells (Fura-2); format: cell-based; details: FIG. 17C
Source text: Cells were labeled with fluorescent calcium indicator dye Fura-2 and exposed to hypotonic solutions in which extracellular sodium was replaced by the osmotically inert substance mannitol, as described in […] et al. (J Neurosci. 2011 May 11; 31(19):7089-101; PMID 21562271).

retinal ganglion cells [3] = assay: TUNEL assay of apoptotic cell death in retinas; format: cell-based; details: Compound 1 1 uM, RuR 10 μM
Experimental: Terminal deoxynucleotidyl transferase-mediated dUTP-biotin nick end labeling (TUNEL) is a common method for detecting fragmentation that results from apoptotic signaling cascades. Retinas were embedded, cryosectioned, and processed for the TUNEL assay following the protocol by Gavrieli et al. (1992). After 30 min. rehydration in 70% ethanol, 2×5 min. rinses in PBS and 1% Triton-X in 1% citrate buffer (pH 7.3), the slides were subjected to a final rinse in PBS. Slides were then incubated for 30 min. in the reaction buffer (30 mM Trizma-HCl, 140 mM cacodylate, 1.0 mM CaCl2, 0.2% Triton X-100, pH 7.2). Positive controls were treated with DNAse I (Roche Diagnostics; Branford, Conn.; 10 U/ml) in the reaction buffer. Next, slides were treated for 1 hour with 0.03 units/μl terminal transferase and 4 μM biotin-16-dUTP (Roche Diagnostics). The reaction was terminated in 30 mM Na+ citrate, 300 mM NaCl and 0.2% Triton X-100 in PBS (5 min.) and rinsed in PBS (2×5 min), exposed to 1% bovine serum albumin in PBS for 20 min and rinsed. Apoptotic cells were visualized with a confocal microscope (Zeiss LSM510) and categorized by size. […] This was blocked by RuR and by the TRPV4 antagonist Compound 1.

retinal ganglion cell = assay: High-Speed Pressure Clamp, pressure-induced inward currents; format: cell-based; details: voltage-clamped retinal ganglion cell, pressure steps 10 to 50 mm Hg
Experimental: The cell was voltage clamped and stimulated with the High-Speed Pressure Clamp method, as detailed by Besch et al (Pflugers Arch. 2002 October; 445(1):161-6). This method consists of a specialized headstage coupled to a piezo element in the pressure/vacuum control valve. By balancing the access of pressure to the patch pipette, the device generates rapid and reproducible pressure steps of >±200 mm Hg. Channel activity is recorded in the cell-attached mode or the membrane is “zapped” into the outside-out configuration.

SMILES: Cc1c(C(=O)Nc2cccc(C(F)(F)F)c2)cc(-c2ccccc2)n1CCCN1CCOCC1 [Compound 1, N-(3-(trifluoromethyl)phenyl)-2-methyl-1-(3-morpholinopropyl)-5-phenyl-1H-pyrrole-3-carboxamide]
- time after dosing at which IOP reduction begins (MB model of glaucoma): 1 h
- effect on GSK-induced degeneration of RGC (retinal ganglion cells [1]): blocked
- pressure-dependent influx of calcium in RGCs (retinal ganglion cells [2]): prevents
- apoptotic cell death induced by hypotonic swelling (TUNEL) (retinal ganglion cells [3]; 190 mOsm saline): block apoptotic cell death
- apoptotic cell death induced by TRPV4 agonist GSK (TUNEL) (retinal ganglion cells [3]; GSK 100 nM): block apoptotic cell death
- pressure-induced inward currents (retinal ganglion cell): reversibly antagonized

Source: patent US20150133411A1, “COMPOUNDS WITH TRPV4 ACTIVITY, COMPOSITIONS AND ASSOCIATED METHODS THEREOF” (The University of Utah Research Foundation, priority 2012, published 2015)
